Experimental data from ChEMBL document CHEMBL1201862, “PubChem BioAssay data set” (2004).
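Compound exposure: 48 hours, 5 concentrations, 96-well plates. GI50 is the concentration that inhibits growth by half.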 Active and inactive are the calls of the source. Cut-off read from the data, not from the text of the source: active = GI50 up to about 1.1 µM and inactive = higher.

Tests used:
Experiment in all cases: NCI anticancer screen, dose series, 48 h
SK-OV-3 = system: SK-OV-3
T47D = system: T47D
RPMI-8226 = system: RPMI-8226
HCT-116 = system: HCT-116
NCI-H23 = system: NCI-H23
SW-620 = system: SW-620
UACC-62 = system: UACC-62
UACC-257 = system: UACC-257
OVCAR-3 = system: OVCAR-3
OVCAR-8 = system: OVCAR-8
TK-10 = system: TK-10
SNB-75 = system: SNB-75
HT-29 = system: HT-29
SK-MEL-2 = system: SK-MEL-2
UO-31 = system: UO-31
NCI-H226 = system: NCI-H226
SK-MEL-5 = system: SK-MEL-5
HOP-62 = system: HOP-62
DU-145 = system: DU-145
CCRF-CEM = system: CCRF-CEM
K562 = system: K562
OVCAR-5 = system: OVCAR-5
SF-539 = system: SF-539
KM12 = system: KM12
SN12C = system: SN12C
MDA-MB-231 = system: MDA-MB-231
SK-MEL-28 = system: SK-MEL-28
786-0 = system: 786-0
CAKI-1 = system: CAKI-1
HCC 2998 = system: HCC 2998
LOX IMVI = system: LOX IMVI
MDA-MB-435 = system: MDA-MB-435
A549 = system: A549
HOP-92 = system: HOP-92
BT-549 = system: BT-549
RXF 393 = system: RXF 393
HL-60 = system: HL-60
MDA-N = system: MDA-N
SF-295 = system: SF-295
U-251 = system: U-251
SNB-19 = system: SNB-19
MCF7 = system: MCF7
M14 = system: M14
NCI-H522 = system: NCI-H522
PC-3 = system: PC-3
IGROV-1 = system: IGROV-1
NCI-H460 = system: NCI-H460
EKVX = system: EKVX
Hs-578T = system: Hs-578T
ACHN = system: ACHN
NCI/ADR-RES = system: NCI/ADR-RES
SF-268 = system: SF-268
HCT-15 = system: HCT-15
OVCAR-4 = system: OVCAR-4
MOLT-4 = system: MOLT-4
COLO 205 = system: COLO 205
SR = system: SR
A498 = system: A498
Malme-3M = system: Malme-3M

Measured: GI50

Cc1cc(O)c2c(c1O)C(=O)c1cccc(O)c1C2=O [ISLANDICIN]
> 100 µM: HCT-15
inactive: SK-OV-3 > 100 µM | T47D > 100 µM | RPMI-8226 > 100 µM | HCT-116 > 100 µM | NCI-H23 > 100 µM | SW-620 > 100 µM | UACC-62 > 100 µM | UACC-257 > 100 µM | OVCAR-3 > 100 µM | OVCAR-8 > 100 µM | TK-10 > 100 µM | SNB-75 43.1 µM | HT-29 > 100 µM | SK-MEL-2 > 100 µM | UO-31 > 100 µM | NCI-H226 > 100 µM | SK-MEL-5 > 100 µM | HOP-62 > 100 µM | DU-145 > 100 µM | CCRF-CEM > 100 µM | K562 > 100 µM | OVCAR-5 > 100 µM | SF-539 > 100 µM | KM12 > 100 µM | SN12C > 100 µM | MDA-MB-231 > 100 µM | SK-MEL-28 > 100 µM | 786-0 > 100 µM | CAKI-1 > 100 µM | HCC 2998 > 100 µM | LOX IMVI > 100 µM | MDA-MB-435 > 100 µM | A549 > 100 µM | HOP-92 > 100 µM | BT-549 > 100 µM | RXF 393 > 100 µM | HL-60 60.8 µM | MDA-N > 100 µM | SF-295 > 100 µM | U-251 > 100 µM | SNB-19 > 100 µM | MCF7 > 100 µM | M14 > 100 µM | NCI-H522 47.8 µM | PC-3 > 100 µM | IGROV-1 > 100 µM | NCI-H460 > 100 µM | EKVX > 100 µM | Hs-578T > 100 µM | ACHN > 100 µM | NCI/ADR-RES > 100 µM | SF-268 > 100 µM | OVCAR-4 > 100 µM

Cn1ccc2c(c1=O)C(=O)OC2(C)C [CERPEGIN]
> 100 µM: HCT-15
inactive: SK-OV-3 > 100 µM | T47D > 100 µM | RPMI-8226 > 100 µM | HCT-116 > 100 µM | NCI-H23 > 100 µM | SW-620 > 100 µM | MOLT-4 > 100 µM | UACC-62 > 100 µM | UACC-257 > 100 µM | OVCAR-3 > 100 µM | OVCAR-8 > 100 µM | TK-10 > 100 µM | SNB-75 > 100 µM | HT-29 > 100 µM | UO-31 59.2 µM | COLO 205 > 100 µM | NCI-H226 > 100 µM | SK-MEL-5 > 100 µM | HOP-62 > 100 µM | DU-145 > 100 µM | CCRF-CEM > 100 µM | K562 > 100 µM | OVCAR-5 > 100 µM | SF-539 > 100 µM | SR > 100 µM | KM12 > 100 µM | SN12C > 100 µM | MDA-MB-231 > 100 µM | SK-MEL-28 > 100 µM | A498 > 100 µM | 786-0 > 100 µM | CAKI-1 > 100 µM | HCC 2998 > 100 µM | LOX IMVI > 100 µM | A549 > 100 µM | BT-549 > 100 µM | RXF 393 > 100 µM | Malme-3M 65.6 µM | HL-60 > 100 µM | MDA-N > 100 µM | SF-295 > 100 µM | U-251 > 100 µM | SNB-19 25.5 µM | MCF7 > 100 µM | M14 > 100 µM | PC-3 > 100 µM | IGROV-1 > 100 µM | NCI-H460 > 100 µM | EKVX > 100 µM | Hs-578T > 100 µM | ACHN > 100 µM | NCI/ADR-RES > 100 µM | SF-268 > 100 µM | OVCAR-4 > 100 µM

CNc1ccc(N)cc1C(=O)N1CCC[C@H]1CO
> 100 µM: HCT-15
inactive: SK-OV-3 > 100 µM | T47D > 100 µM | HCT-116 > 100 µM | NCI-H23 > 100 µM | SW-620 > 100 µM | MOLT-4 > 100 µM | UACC-62 > 100 µM | UACC-257 > 100 µM | OVCAR-8 > 100 µM | TK-10 > 100 µM | SNB-75 > 100 µM | HT-29 > 100 µM | SK-MEL-2 > 100 µM | UO-31 > 100 µM | COLO 205 > 100 µM | NCI-H226 > 100 µM | SK-MEL-5 > 100 µM | HOP-62 > 100 µM | DU-145 > 100 µM | CCRF-CEM > 100 µM | OVCAR-5 > 100 µM | SF-539 > 100 µM | KM12 > 100 µM | SN12C > 100 µM | MDA-MB-231 > 100 µM | SK-MEL-28 > 100 µM | A498 > 100 µM | 786-0 > 100 µM | CAKI-1 > 100 µM | LOX IMVI > 100 µM | MDA-MB-435 > 100 µM | A549 > 100 µM | BT-549 > 100 µM | RXF 393 > 100 µM | Malme-3M > 100 µM | HL-60 > 100 µM | MDA-N > 100 µM | SF-295 > 100 µM | U-251 > 100 µM | SNB-19 > 100 µM | MCF7 > 100 µM | M14 > 100 µM | NCI-H522 > 100 µM | PC-3 > 100 µM | IGROV-1 > 100 µM | EKVX > 100 µM | Hs-578T > 100 µM | ACHN > 100 µM | NCI/ADR-RES > 100 µM | SF-268 > 100 µM | OVCAR-4 > 100 µM
